Literature values in patent US7368458B2, “Bicyclic heterocycles as cannabinoid receptor modulators” (Bristol-Myers Squibb Company, priority 2005, dated 2008).
Like-named read-outs stand apart in the source and are kept apart here.

Assays:
[1] = chronic administration for two weeks
[2] = human subjects, 16 week trial period

| Structure (SMILES) | body weight [1] | body weight [2] |
| --- | --- | --- |
| Cc1c(C(=O)NN2CCCCC2)nn(-c2ccc(Cl)cc2Cl)c1-c1ccc(I)cc1 [AM-251] | substantial body weight reduction |  |
| Cc1c(C(=O)NN2CCCCC2)nn(-c2ccc(Cl)cc2Cl)c1-c1ccc(Cl)cc1 [SR-141716] |  | dose-dependently reduced body weight |
